Measurements: patent publication US7803992B2, “Methods and compositions for expressing an herbicide-tolerant polynucleotide” (Pioneer Hi-Bred International, Inc., priority 2005, dated 2010)

What was measured:
[1] = test system: parent elite stiff stalk inbred corn; assay: Postemergence herbicide application in greenhouse: fresh shoot weight and visual injury; type: in vivo; details: for pest or weed control at 200 g/ha: Zea mays, post-emergence, read-out: % Visual Injury; for Fresh Weight: weighed 2 weeks after treatment, untreated 76.4 g
[2] = test system: control maize; assay: Evaluation of herbicide tolerance, spray at V2 stage, injury symptoms after 10-14 days; type: in vivo; details: postemergence; tribenuron (Express) 200, chlorimuron (Classic) 200, imazapyr (Arsenal) 200, metsulfuron-methyl (Ally) 35 g ai/ha
Procedure: At the V2 stage (Ritchie and Hanway (1982), “How a corn plant develops” Spec. Rep. 48. (Coop. Ext. Ser., Iowa State Univ., Ames, Iowa)), plant heights were measured and herbicides were applied by spray application. Ten to fourteen days after the spray application, the transgenic plants were evaluated for injury symptoms and measured for plant height again in order to determine plant growth rates.

[3] = test system: Heterozygous GAT-HRA corn; assay: Preemergence herbicide application in greenhouse: fresh shoot weight and visual injury; type: in vivo; details: for pest or weed control at 200 g/ha: Zea mays, pre-emergence, 672 h, read-out: % Visual Injury; for Fresh Weight: fresh shoots weighed 4 weeks after treatment, untreated 47.0 g
[4] = test system: parent elite stiff stalk inbred corn; assay: as above; type: in vivo; details: for pest or weed control at 200 g/ha: Zea mays, pre-emergence, 672 h, read-out: % Visual Injury; for Fresh Weight: fresh shoots weighed 4 weeks after treatment, untreated 36.7 g
[5] = test system: GAT-HRA maize; assay: Evaluation of herbicide tolerance, spray at V2 stage, injury symptoms after 10-14 days; type: in vivo; details: postemergence; tribenuron (Express) 200, chlorimuron (Classic) 200, imazapyr (Arsenal) 200, metsulfuron-methyl (Ally) 35 g ai/ha
Procedure: GAT-HRA maize plants were evaluated for tolerance to glyphosate and other herbicides. One protocol used in this evaluation was as follows. At the V2 stage (Ritchie and Hanway (1982), “How a corn plant develops” Spec. Rep. 48. (Coop. Ext. Ser., Iowa State Univ., Ames, Iowa)), plant heights were measured and herbicides were applied by spray application. Ten to fourteen days after the spray application, the transgenic plants were evaluated for injury symptoms and measured for plant height again in order to determine plant growth rates.
Plants were then evaluated at various times after treatment, such as 10 or 14 days after treatment.

[6] = test system: Heterozygous GAT-HRA corn; assay: Postemergence herbicide application in greenhouse: fresh shoot weight and visual injury; type: in vivo; details: for pest or weed control at 200 g/ha: Zea mays, post-emergence, read-out: % Visual Injury; for Fresh Weight: weighed 2 weeks after treatment, untreated 98.8 g
[7] = test system: Wild Type soybeans (Jack); assay: Postemergence herbicide treatment of soybeans in greenhouse, visual injury; type: in vivo, soybean; details: postemergence, glyphosate 8960, tribenuron-methyl 35, rimsulfuron 35 g/ha
Procedure: (§1) Young regenerated transgenic plants were sprayed with 1× glyphosate (1× rate of glyphosate is 1120 g/ha of glyphosate isopropylamine) to cull segregants. Four replications were performed for each treatment. Plants were then treated with various herbicides, including glyphosate and ALS-inhibitor herbicides.
(§2) Six soybean seeds from each variety to be assayed were planted 1 cm deep in 5.5 (13.97 cm) inch square plastic container of a synthetic growth medium. […] When possible, containers were thinned to two uniform plants. Non-transgenic lines were thinned to two uniform plants per container.
(§3) Results are expressed below in Table 11 as the mean of four replications.

[8] = test system: GAT-HRA soybeans; assay: as above; type: in vivo, soybean; details: postemergence, glyphosate 8960, tribenuron-methyl 35, rimsulfuron 35 g/ha
Procedure: as §1, §2, §3

[9] = test system: Untransformed Coker 312 cotton; assay: Greenhouse over the top herbicide spray of cotton; type: in vivo, Gossypium hirsutum; details: glyphosate 1.5 lb ae/acre, 2 weeks after application; rimsulfuron 16 g active ingredient/hectare without glyphosate
Excerpt: Transformed cotton plants were rooted and then transferred to soil for further growth. Plants were then subjected to herbicide spray treatments in a greenhouse. […] Untransformed Coker 312 control plants were dead 2 weeks after glyphosate application. […] Plants transformed with both GAT and HRA were further subjected to an “over the top” application of the sulfonylurea herbicide rimsulfuron at a rate of 16 g active ingredient/hectare. […] In further experiments 32 g ai/ha rimsulfuron were applied to the cotton.

[10] = test system: STS ® soybeans; assay: Postemergence herbicide treatment of soybeans in greenhouse, visual injury; type: in vivo, soybean
Excerpt: When possible, containers were thinned to two uniform plants.

[11] = postemergence, 200 g/ha (glyphosate 3472 g ae/ha, glufosinate ammonium 1870 g/ha), mean of four replications
[12] = preemergence, 200 g/ha, mean of four replications
[13] = postemergence, 200 g/ha (glyphosate 3472 g ae/ha, glufosinate ammonium 1870 g/ha), 0% no injury, 100% plant death, mean of four replications
[14] = preemergence, 200 g/ha, 0% no injury, 100% plant death, mean of four replications

CCOC(=O)c1ccccc1S(=O)(=O)NC(=O)Nc1nc(Cl)cc(OC)n1 [Chlorimuron-ethyl]
pest or weed control at 200 g/ha ([1]; […]): 93% | Fresh Weight [1, 11]: 10.1 g | damage from the treatment [2]: severely damaged or killed | pest or weed control at 200 g/ha [3]: 10% | Fresh Weight [3, 12]: 39.4 g | pest or weed control at 200 g/ha [4]: 100% | Fresh Weight [4, 12]: 9.3 g | damage from the treatment [5]: no significant damage | pest or weed control at 200 g/ha ([6]; […]): 15% | Fresh Weight [6, 11]: 95.5 g

CCS(=O)(=O)c1cccnc1S(=O)(=O)NC(=O)Nc1nc(OC)cc(OC)n1 [Rimsulfuron]
% Visual Injury ([7]; Wild Type line 82): 97% | % Visual Injury ([7]; Wild Type line Jack): 97% | % Visual Injury ([7]; Wild Type, mean): 97% | % Visual Injury ([8]; event 59, mean): 87% | % Visual Injury ([8]; event 59 line 21): 88% | % Visual Injury ([8]; event 59 line 28): 86% | % Visual Injury ([8]; event 60, mean): 83% | % Visual Injury ([8]; event 60 line 07): 84% | % Visual Injury ([8]; event 60 line 11): 83% | % Visual Injury ([8]; event 60 line 22): 76% | % Visual Injury ([8]; event 60 line 35): 85% | % Visual Injury ([8]; event 60 line 41): 80% | % Visual Injury ([8]; event 60 line 46): 78% | % Visual Injury ([8]; event 60 line 70): 80% | % Visual Injury ([8]; event 60 line 75): 86% | % Visual Injury ([8]; event 60 line 77): 90% | % Visual Injury ([8]; event 60 line 79): 86% | % Visual Injury ([8]; event 60 line 82): 90% | % Visual Injury ([8]; event 60 line 84): 83% | % Visual Injury ([8]; event 61, mean): 82% | % Visual Injury ([8]; event 61 line 02): 80% | % Visual Injury ([8]; event 61 line 02B): 70% | % Visual Injury ([8]; event 61 line 05): 78% | % Visual Injury ([8]; event 61 line 14): 90% | % Visual Injury ([8]; event 61 line 18): 89% | % Visual Injury ([8]; event 61 line 24): 90% | % Visual Injury ([8]; event 61 line 33): 95% | % Visual Injury ([8]; event 61 line 34): 90% | % Visual Injury ([8]; event 61 line 47): 78% | % Visual Injury ([8]; event 61 line 49): 84% | % Visual Injury ([8]; event 61 line 51): 83% | % Visual Injury ([8]; event 61 line 60): 73% | % Visual Injury ([8]; event 61 line 62): 71% | % Visual Injury ([8]; event 61 line 99): 79% | % Visual Injury ([8]; event 64, mean): 73% | % Visual Injury ([8]; event 64 line 41): 73% | % Visual Injury ([8]; event 64 line 47): 73% | pest or weed control at 200 g/ha [1, 13]: 91% | Fresh Weight [1, 11]: 12.6 g | damage to untransformed control plants [9]: severe damage | pest or weed control at 200 g/ha [3, 14]: 0% | Fresh Weight [3, 12]: 45.3 g | % Visual Injury ([10]; STS ® line 25, glyphosate 8960, tribenuron-methyl 35, rimsulfuron 35 g/ha): 97% | % Visual Injury ([10]; STS ® line 46, glyphosate 8960, tribenuron-methyl 35, rimsulfuron 35 g/ha): 97% | % Visual Injury ([10]; STS ®, mean, glyphosate 8960, tribenuron-methyl 35, rimsulfuron 35 g/ha): 97% | pest or weed control at 200 g/ha [4, 14]: 74% | Fresh Weight [4, 12]: 29.8 g | pest or weed control at 200 g/ha [6, 13]: 10% | Fresh Weight [6, 11]: 99.2 g

COC(=O)c1ccccc1S(=O)(=O)NC(=O)Nc1nc(C)nc(OC)n1 [Metsulfuron-methyl]
pest or weed control at 200 g/ha [1, 13]: 100% | Fresh Weight [1, 11]: 1.9 g | damage from the treatment [2]: severely damaged or killed | pest or weed control at 200 g/ha [3, 14]: 0% | Fresh Weight [3, 12]: 41.1 g | pest or weed control at 200 g/ha [4, 14]: 100% | Fresh Weight [4, 12]: 0.0 g | damage from the treatment [5]: no significant damage | pest or weed control at 200 g/ha [6, 13]: 14% | Fresh Weight [6, 11]: 75.5 g

CC(C)C1(C)N=C(c2ncccc2C(=O)O)NC1=O (stereo not shown) [Imazapyr]
pest or weed control at 200 g/ha [1, 13]: 100% | Fresh Weight [1, 11]: 2.3 g | damage from the treatment [2]: severely damaged or killed | pest or weed control at 200 g/ha [3, 14]: 30% | Fresh Weight [3, 12]: 44.2 g | pest or weed control at 200 g/ha [4, 14]: 99% | Fresh Weight [4, 12]: 0.3 g | damage from the treatment [5]: no significant damage | pest or weed control at 200 g/ha [6, 13]: 1% | Fresh Weight [6, 11]: 97.8 g
